According to patent publication US20220289732A1, “HETEROCYCLIC WDR5 INHIBITORS AS ANTI-CANCER COMPOUNDS” (NOVARTIS AG, priority 2019, published 2022):

Experiments:
MV4-11 cells = assay: MV4-11 6-day cell growth CTG (CellTiter-Glo) assay; assay type: cell-based; conditions: Homo sapiens, MV4-11, 144 h, 6 days, read-out: (c) MLL/WDR5 cell proliferation assay//MLL/WDR5 proliferation MV4:11 Qualified AC50
Outline: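 Exponentially growing MV4-11 AML cells (RPMI 1640, 10% FBS) seeded at 300 cells/well with 12-point 1:3 compound dilutions, top final concentration 50 μM. Viability read by CellTiter-Glo luminescence after 6 days at 37° C; % inhibition vs DMSO-only wells fitted to dose-response for IC50.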

WDR5 = WDR5 (Homo sapiens, UniProt P61964); assay: WDR5 HTRF binding assay; conditions: read-out: (a) WDR5 HTRF Pep Val v.1[Inhibitor/IC50]Qualified AC50
Outline: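 6 nM WDR5 and 20 nM biotin-MLL1 WIN peptide (3762-3773) were incubated with compound (12-point, 3-fold dilutions) in pH 7.5 Hepes/NaCl/DTT buffer for 20 min at rt. Streptavidin-APC plus anti-His-Eu were then added for 1 hr, with HTRF read at 665/615. IC50 was fit from control-normalized activity; the counter assay used 15 nM biotin-PEG-His peptide.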

[1] = target: wild type MLL1 four-member complex (MLL1-4C) (Homo sapiens, UniProt P61964); assay: MLL1 LC-MS assay (SAH production); assay type: biochemical; conditions: read-out: (b) MLL LCMS Peptide Val.v.1 Qualified AC50
Outline: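 MLL1-4C (30 nM final) was preincubated 20 min with compound (3-fold dilutions, 8 or 12 points) and SAM in Tris-HCl pH 8.0 buffer. H3K4me0 peptide (histone H3[1-21]-biotin) was then added, giving final 2.5 μM SAM and 10 μM substrate, and reactions ran 120 min at rt. After TFA/d4-SAH quench, SAH was quantified by LC-MS/MS and IC50 fitted from control-normalised activity.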

| Structure (SMILES) | IC50 (WDR5) | AC50 [1] | AC50 (MV4-11 cells) |
| --- | --- | --- | --- |
| CNc1nccn1Cc1cc2c(c(-c3cc(CO)cnc3Cl)c1)CCN(Cc1cccc(OC)c1)C2=O [Example 52, 5-(2-chloro-5-(hydroxymethyl)pyridin-3-yl)-2-(3-methoxybenzyl)-7-((2-(methylamino)-1H-imidazol-1-yl)methyl)-3,4-dihydroisoquinolin-1(2H)-one] | < 10 nM | 10 to 1000 nM | 10 to 1000 nM |
| CNc1nccn1Cc1cc2c(c(-c3cc(CO)cnc3Cl)c1)CCN(Cc1ccc(F)c(OC)c1)C2=O [Example 53, 5-(2-chloro-5-(hydroxymethyl)pyridin-3-yl)-2-(4-fluoro-3-methoxybenzyl)-7-((2-(methylamino)-1H-imidazol-1-yl)methyl)-3,4-dihydroisoquinolin-1(2H)-one] | 10 to 1000 nM | 10 to 1000 nM | 10 to 1000 nM |
| CNc1nccn1Cc1cc2c(c(-c3cn(C)nc3C(F)(F)F)c1)CCN(Cc1ccc(F)c(OC)c1)C2=O [Example 54, 2-(4-fluoro-3-methoxybenzyl)-5-(1-methyl-3-(trifluoromethyl)-1H-pyrazol-4-yl)-7-((2-(methylamino)-1H-imidazol-1-yl)methyl)-3,4-dihydroisoquinolin-1(2H)-one] | 10 to 1000 nM | 10 to 1000 nM | 10 to 1000 nM |
| CNc1nccn1Cc1cc2c(c(-c3c[nH]nc3C)c1)CCN(Cc1ccc(F)c(OC)c1)C2=O [Example 55, 2-(4-fluoro-3-methoxybenzyl)-5-(3-methyl-1H-pyrazol-4-yl)-7-((2-(methylamino)-1H-imidazol-1-yl)methyl)-3,4-dihydroisoquinolin-1(2H)-one] | 10 to 1000 nM | 10 to 1000 nM | 10 to 1000 nM |
| CNc1nccn1Cc1cc2c(c(-c3cc(CO)cnc3Cl)c1)CCN([C@@H](C)c1ccc(F)c(OC)c1)C2=O [Example 56, (S)-5-(2-chloro-5-(hydroxymethyl)pyridin-3-yl)-2-(1-(4-fluoro-3-methoxyphenyl)ethyl)-7-((2-(methylamino)-1H-imidazol-1-yl)methyl)-3,4-dihydroisoquinolin-1(2H)-one] | 10 to 1000 nM | 10 to 1000 nM | 10 to 1000 nM |
| CNc1nccn1Cc1cc2c(c(-c3cc(CO)cnc3Cl)c1)CCN(Cc1cc(OC)c(F)cc1F)C2=O [Example 61, 5-(2-chloro-5-(hydroxymethyl)pyridin-3-yl)-2-(2,4-difluoro-5-methoxybenzyl)-7-((2-(methylamino)-1H-imidazol-1-yl)methyl)-3,4-dihydroisoquinolin-1(2H)-one] | 10 to 1000 nM | 10 to 1000 nM | 10 to 1000 nM |
| CNc1nccn1Cc1cc2c(c(-c3cc(CO)ccc3Cl)c1)CCN(Cc1ccc(F)c(OC)c1)C2=O [Example 65, 5-(2-chloro-5-(hydroxymethyl)phenyl)-2-(4-fluoro-3-methoxybenzyl)-7-((2-(methylamino)-1H-imidazol-1-yl)methyl)-3,4-dihydroisoquinolin-1(2H)-one] | 10 to 1000 nM | 10 to 1000 nM | 10 to 1000 nM |
| CNc1nccn1Cc1cc2c(c(-c3cc(CO)cnc3Cl)c1)CCN(Cc1cc(F)cc(Cl)c1)C2=O [Example 67, 5-(2-chloro-5-(hydroxymethyl)pyridin-3-yl)-2-(3-chloro-5-fluorobenzyl)-7-((2-(methylamino)-1H-imidazol-1-yl)methyl)-3,4-dihydroisoquinolin-1(2H)-one] | 10 to 1000 nM | 10 to 1000 nM | 10 to 1000 nM |
| CNc1nccn1Cc1cc2c(c(-c3cc(CO)cnc3Cl)c1)CCN(Cc1cc(OC)c(F)cn1)C2=O [Example 68, 5-(2-chloro-5-(hydroxymethyl)pyridin-3-yl)-2-((5-fluoro-4-methoxypyridin-2-yl)methyl)-7-((2-(methylamino)-1H-imidazol-1-yl)methyl)-3,4-dihydroisoquinolin-1(2H)-one] | 10 to 1000 nM | 10 to 1000 nM | 10 to 1000 nM |
| CNc1nccn1Cc1cc2c(c(-c3cc(CO)cnc3Cl)c1)CCN(Cc1ccc(F)c(C#N)c1)C2=O [Example 69, 5-((5-(2-chloro-5-(hydroxymethyl)pyridin-3-yl)-7-((2-(methylamino)-1H-imidazol-1-yl)methyl)-1-oxo-3,4-dihydroisoquinolin-2(1H)-yl)methyl)-2-fluorobenzonitrile] | 10 to 1000 nM | 10 to 1000 nM | 10 to 1000 nM |
| CNc1nccn1Cc1cc2c(c(-c3cc(CO)cnc3Cl)c1)CCN(Cc1ccc(F)c(F)c1)C2=O [Example 70, 5-(2-chloro-5-(hydroxymethyl)pyridin-3-yl)-2-(3,4-difluorobenzyl)-7-((2-(methylamino)-1H-imidazol-1-yl)methyl)-3,4-dihydroisoquinolin-1(2H)-one] | 10 to 1000 nM | 10 to 1000 nM | 10 to 1000 nM |
| CNc1nccn1Cc1cc2c(c(-c3ccnn3C)c1)CCN(Cc1ccc(F)c(OC)c1)C2=O [Example 72, 2-(4-fluoro-3-methoxybenzyl)-5-(1-methyl-1H-pyrazol-5-yl)-7-((2-(methylamino)-1H-imidazol-1-yl)methyl)-3,4-dihydroisoquinolin-1(2H)-one] | 10 to 1000 nM | 10 to 1000 nM | 10 to 1000 nM |

Second part, led by results:

| IC50 (WDR5) | AC50 [1] | Structure (SMILES) | AC50 (MV4-11 cells) |
| --- | --- | --- | --- |
| 10 to 1000 nM | 10 to 1000 nM | CNc1nccn1Cc1cc2c(c(-c3cc(CO)cnc3Cl)c1)CCN([C@H](C)c1ccc(F)c(OC)c1)C2=O [Example 57, (R)-5-(2-chloro-5-(hydroxymethyl)pyridin-3-yl)-2-(1-(4-fluoro-3-methoxyphenyl)ethyl)-7-((2-(methylamino)-1H-imidazol-1-yl)methyl)-3,4-dihydroisoquinolin-1(2H)-one] | 10 to 1000 nM |
| 10 to 1000 nM | 10 to 1000 nM | CNc1nccn1Cc1cc2c(c(-c3cn(C)nc3C)c1)CCN(Cc1ccc(F)c(OC)c1)C2=O [Example 58, 5-(1,3-dimethyl-1H-pyrazol-4-yl)-2-(4-fluoro-3-methoxybenzyl)-7-((2-(methylamino)-1H-imidazol-1-yl)methyl)-3,4-dihydroisoquinolin-1(2H)-one] | 10 to 1000 nM |
| 10 to 1000 nM | 10 to 1000 nM | CNc1nccn1Cc1cc2c(c(-c3cncnc3)c1)CCN([C@@H](C)c1cc(OC)c(F)cn1)C2=O [Example 59, (S)-2-(1-(5-fluoro-4-methoxypyridin-2-yl)ethyl)-7-((2-(methylamino)-1H-imidazol-1-yl)methyl)-5-(pyrimidin-5-yl)-3,4-dihydroisoquinolin-1(2H)-one] | 10 to 1000 nM |
| 10 to 1000 nM | 10 to 1000 nM | CNc1nccn1Cc1cc2c(c(-c3ccnn3C)c1)CCN(Cc1cc(OC)c(F)cn1)C2=O [Example 60, 2-((5-fluoro-4-methoxypyridin-2-yl)methyl)-5-(1-methyl-1H-pyrazol-5-yl)-7-((2-(methylamino)-1H-imidazol-1-yl)methyl)-3,4-dihydroisoquinolin-1(2H)-one] | 10 to 1000 nM |
| 10 to 1000 nM | 10 to 1000 nM | CNc1nccn1Cc1cc2c(c(-c3cn(C)nc3C)c1)CCN([C@@H](C)c1cc(OC)c(F)cn1)C2=O [Example 62, (S)-5-(1,3-dimethyl-1H-pyrazol-4-yl)-2-(1-(5-fluoro-4-methoxypyridin-2-yl)ethyl)-7-((2-(methylamino)-1H-imidazol-1-yl)methyl)-3,4-dihydroisoquinolin-1(2H)-one] | 10 to 1000 nM |
| 10 to 1000 nM | 10 to 1000 nM | CNc1nccn1Cc1cc2c(c(-c3ccn[nH]3)c1)CCN([C@@H](C)c1cc(OC)c(F)cn1)C2=O [Example 63, (S)-2-(1-(5-fluoro-4-methoxypyridin-2-yl)ethyl)-7-((2-(methylamino)-1H-imidazol-1-yl)methyl)-5-(1H-pyrazol-5-yl)-3,4-dihydroisoquinolin-1(2H)-one] | 10 to 1000 nM |
| 10 to 1000 nM | 10 to 1000 nM | CNc1nccn1Cc1cc2c(c(-c3cn(C)nc3C(F)(F)F)c1)CCN(Cc1cc(OC)c(F)cn1)C2=O [Example 64, 2-((5-fluoro-4-methoxypyridin-2-yl)methyl)-5-(1-methyl-3-(trifluoromethyl)-1H-pyrazol-4-yl)-7-((2-(methylamino)-1H-imidazol-1-yl)methyl)-3,4-dihydroisoquinolin-1(2H)-one] | 10 to 1000 nM |
| 10 to 1000 nM | 10 to 1000 nM | CNc1nccn1Cc1cc2c(c(-c3cn(C)nc3C(F)F)c1)CCN(Cc1ccc(F)c(OC)c1)C2=O [Example 66, 5-(3-(difluoromethyl)-1-methyl-1H-pyrazol-4-yl)-2-(4-fluoro-3-methoxybenzyl)-7-((2-(methylamino)-1H-imidazol-1-yl)methyl)-3,4-dihydroisoquinolin-1(2H)-one] | 10 to 1000 nM |
| 10 to 1000 nM | 10 to 1000 nM | CNc1nccn1Cc1cc2c(c(-c3cn(C)nc3C)c1)CCN([C@H](C)c1cc(OC)c(F)cn1)C2=O [Example 71, (R)-5-(1,3-dimethyl-1H-pyrazol-4-yl)-2-(1-(5-fluoro-4-methoxypyridin-2-yl)ethyl)-7-((2-(methylamino)-1H-imidazol-1-yl)methyl)-3,4-dihydroisoquinolin-1(2H)-one] | 10 to 1000 nM |
